Measured values as given in ChEMBL document CHEMBL1201862, “PubChem BioAssay data set” (2004).
Activity calls are given as the source filed them.

What was measured:
[1] = target: Peroxisome proliferator-activated receptor gamma/Nuclear receptor coactivator 1 (Homo sapiens, UniProt P37231); test: TR-FRET dose response biochemical High Throughput Screening assay for agonists of the steroid receptor coactivator 1 (SRC-1) recruitment by the peroxisome proliferator-activated receptor gamma (PPAR gamma): non-selective agonists. [Related pubchem assays (depositor defined):AID1300, AID1808, AID504735, AID631]; type: protein assay
Sequence of Peroxisome proliferator-activated receptor gamma/Nuclear receptor coactivator 1 (P37231 whole entry): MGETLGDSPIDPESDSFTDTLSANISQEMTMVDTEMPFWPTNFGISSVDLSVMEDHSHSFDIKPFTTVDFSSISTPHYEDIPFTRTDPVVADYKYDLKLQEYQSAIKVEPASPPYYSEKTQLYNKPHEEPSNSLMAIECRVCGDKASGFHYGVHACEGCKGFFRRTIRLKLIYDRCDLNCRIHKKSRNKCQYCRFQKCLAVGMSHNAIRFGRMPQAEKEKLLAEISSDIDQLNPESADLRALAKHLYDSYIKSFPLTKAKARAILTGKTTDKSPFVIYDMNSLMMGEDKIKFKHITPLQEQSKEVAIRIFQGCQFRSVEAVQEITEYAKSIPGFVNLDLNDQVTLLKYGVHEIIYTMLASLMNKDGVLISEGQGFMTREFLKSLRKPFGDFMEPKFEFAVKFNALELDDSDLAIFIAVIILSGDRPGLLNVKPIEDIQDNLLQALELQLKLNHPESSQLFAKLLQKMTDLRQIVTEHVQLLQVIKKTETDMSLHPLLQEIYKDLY
Sequence of Peroxisome proliferator-activated receptor gamma/Nuclear receptor coactivator 1 (Q15788 whole entry, further chain): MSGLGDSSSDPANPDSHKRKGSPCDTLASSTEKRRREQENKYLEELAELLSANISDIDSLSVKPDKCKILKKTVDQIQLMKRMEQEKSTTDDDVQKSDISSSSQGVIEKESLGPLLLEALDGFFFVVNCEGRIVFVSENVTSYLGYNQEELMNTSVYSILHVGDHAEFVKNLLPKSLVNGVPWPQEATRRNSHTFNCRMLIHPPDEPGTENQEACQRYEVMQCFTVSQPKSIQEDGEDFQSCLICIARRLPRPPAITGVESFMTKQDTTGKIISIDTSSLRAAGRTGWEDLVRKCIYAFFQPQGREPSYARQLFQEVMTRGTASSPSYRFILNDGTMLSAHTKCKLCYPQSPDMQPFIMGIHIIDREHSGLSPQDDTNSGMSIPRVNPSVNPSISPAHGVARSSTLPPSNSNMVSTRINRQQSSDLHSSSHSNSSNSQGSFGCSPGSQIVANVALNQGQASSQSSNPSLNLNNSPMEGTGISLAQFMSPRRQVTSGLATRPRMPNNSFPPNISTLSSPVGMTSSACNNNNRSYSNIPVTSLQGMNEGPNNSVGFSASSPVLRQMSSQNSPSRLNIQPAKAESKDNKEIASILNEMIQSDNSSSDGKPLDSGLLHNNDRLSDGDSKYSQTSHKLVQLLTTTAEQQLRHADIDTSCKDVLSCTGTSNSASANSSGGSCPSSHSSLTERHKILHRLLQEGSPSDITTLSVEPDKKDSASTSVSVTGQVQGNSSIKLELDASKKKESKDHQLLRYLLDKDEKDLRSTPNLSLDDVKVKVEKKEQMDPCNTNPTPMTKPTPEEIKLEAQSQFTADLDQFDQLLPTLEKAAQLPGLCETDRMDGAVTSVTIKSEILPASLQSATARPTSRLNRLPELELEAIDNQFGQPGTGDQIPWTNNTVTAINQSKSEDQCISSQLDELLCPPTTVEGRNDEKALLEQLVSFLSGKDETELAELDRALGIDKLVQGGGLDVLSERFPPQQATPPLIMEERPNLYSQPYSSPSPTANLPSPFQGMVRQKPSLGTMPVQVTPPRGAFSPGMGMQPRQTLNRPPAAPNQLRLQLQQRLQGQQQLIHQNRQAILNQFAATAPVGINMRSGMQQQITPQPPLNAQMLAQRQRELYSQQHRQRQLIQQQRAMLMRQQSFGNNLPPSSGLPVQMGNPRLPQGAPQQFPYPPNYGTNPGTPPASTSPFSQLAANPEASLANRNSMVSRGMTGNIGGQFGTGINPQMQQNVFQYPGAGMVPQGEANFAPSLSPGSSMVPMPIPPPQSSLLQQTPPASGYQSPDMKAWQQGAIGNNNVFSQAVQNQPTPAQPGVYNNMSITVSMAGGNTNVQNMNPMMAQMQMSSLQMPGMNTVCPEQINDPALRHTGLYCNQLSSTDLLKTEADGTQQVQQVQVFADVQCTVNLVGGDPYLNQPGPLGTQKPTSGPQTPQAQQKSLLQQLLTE

[2] = target: Peroxisome proliferator-activated receptor gamma/Nuclear receptor coactivator 3 (Homo sapiens, UniProt P37231); test: TR-FRET dose response biochemical High Throughput Screening assay for agonists of the steroid receptor coactivator 3 (SRC-3) recruitment by the peroxisome proliferator-activated receptor gamma (PPAR gamma): non-selective agonists. [Related pubchem assays: 1301 (Confirmation screen.), 1048 (Primary screen.)]; type: functional
Sequence of Peroxisome proliferator-activated receptor gamma/Nuclear receptor coactivator 3 (P37231 whole entry): as the sequence (P37231 whole entry) above
Sequence of Peroxisome proliferator-activated receptor gamma/Nuclear receptor coactivator 3 (Q9Y6Q9 whole entry, further chain): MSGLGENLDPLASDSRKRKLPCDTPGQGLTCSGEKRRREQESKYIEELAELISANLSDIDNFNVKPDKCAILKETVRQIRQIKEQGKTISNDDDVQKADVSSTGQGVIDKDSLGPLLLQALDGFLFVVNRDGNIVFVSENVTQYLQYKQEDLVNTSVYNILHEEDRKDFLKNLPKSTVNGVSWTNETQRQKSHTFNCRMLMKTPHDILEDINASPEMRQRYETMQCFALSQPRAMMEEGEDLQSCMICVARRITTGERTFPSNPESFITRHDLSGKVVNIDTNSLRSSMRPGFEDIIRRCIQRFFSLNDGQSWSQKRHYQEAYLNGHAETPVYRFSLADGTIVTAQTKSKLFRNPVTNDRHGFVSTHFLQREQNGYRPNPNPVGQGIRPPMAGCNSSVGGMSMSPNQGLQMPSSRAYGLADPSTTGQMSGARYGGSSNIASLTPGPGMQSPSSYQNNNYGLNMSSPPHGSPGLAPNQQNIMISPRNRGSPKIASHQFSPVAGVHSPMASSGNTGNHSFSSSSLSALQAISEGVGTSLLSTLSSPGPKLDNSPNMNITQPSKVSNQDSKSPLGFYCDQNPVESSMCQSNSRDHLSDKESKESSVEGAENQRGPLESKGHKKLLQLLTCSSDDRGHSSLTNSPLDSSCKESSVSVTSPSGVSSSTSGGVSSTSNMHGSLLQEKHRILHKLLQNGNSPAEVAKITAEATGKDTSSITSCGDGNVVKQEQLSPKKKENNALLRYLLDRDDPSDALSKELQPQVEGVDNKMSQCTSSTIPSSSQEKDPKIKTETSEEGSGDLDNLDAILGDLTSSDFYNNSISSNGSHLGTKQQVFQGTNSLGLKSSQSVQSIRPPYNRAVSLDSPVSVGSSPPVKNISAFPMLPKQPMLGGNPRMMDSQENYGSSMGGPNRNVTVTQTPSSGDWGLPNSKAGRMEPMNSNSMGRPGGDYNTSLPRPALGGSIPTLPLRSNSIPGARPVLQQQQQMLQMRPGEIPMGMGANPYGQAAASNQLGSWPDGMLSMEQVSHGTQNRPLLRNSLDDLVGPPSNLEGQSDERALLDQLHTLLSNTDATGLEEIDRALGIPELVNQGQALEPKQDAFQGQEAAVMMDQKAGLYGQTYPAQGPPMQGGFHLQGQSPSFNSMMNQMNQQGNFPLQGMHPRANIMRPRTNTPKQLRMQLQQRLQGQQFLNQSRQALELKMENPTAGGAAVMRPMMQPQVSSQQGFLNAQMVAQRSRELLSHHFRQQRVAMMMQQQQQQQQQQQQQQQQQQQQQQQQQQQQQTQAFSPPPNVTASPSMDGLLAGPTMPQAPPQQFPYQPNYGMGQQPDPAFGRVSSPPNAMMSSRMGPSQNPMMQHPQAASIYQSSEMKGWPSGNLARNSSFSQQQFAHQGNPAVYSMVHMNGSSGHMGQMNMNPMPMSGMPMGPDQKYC

[3] = target: Peroxisome proliferator-activated receptor gamma/Nuclear receptor coactivator 2 (Homo sapiens, UniProt P37231); test: TR-FRET dose response biochemical High Throughput Screening assay for agonists of the steroid receptor coactivator 2 (SRC-2) recruitment by the peroxisome proliferator-activated receptor gamma (PPAR gamma): non-selective agonists. [Related pubchem assays: 1297, 1032 ]; type: functional
HEK293 = test: inhibitors of LMP1-driven NF-kB reporter, dose response, cell-based, HEK293, luciferase, cherry-pick (AID 588343); type: functional; conditions: Homo sapiens
[4] = cytotoxicity in HEK-293T cells, dose response, cytotoxicity control for TCR NF-kB inhibitor project, luminescence, T-cell screen hits (AID 489026); type: functional, cell-based;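 also: cells exposed to compound about 14 hours before the viability readout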
Vero [5] = test: cells; type: functional, cell-based; conditions: Chlorocebus sabaeus
Vero [6] = test: cells; type: functional; conditions: Chlorocebus sabaeus
Paired box protein Pax-8 = Paired box protein Pax-8 (Homo sapiens, UniProt Q06710); test: inhibitors of PAX8-driven TPO luciferase reporter, dose response, RMG-I cells, cherry-pick (AID 687027); type: functional, cell-based;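 also: luciferase reporter driven by Pax8 target thyroperoxidase promoter measured by SteadyGlo luminescence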
Beta-galactosidase = Beta-galactosidase (Escherichia coli, UniProt Q8VNN2); test: PubChem AID 485352; type: functional
Sequence of Beta-galactosidase (Q8VNN2 whole entry): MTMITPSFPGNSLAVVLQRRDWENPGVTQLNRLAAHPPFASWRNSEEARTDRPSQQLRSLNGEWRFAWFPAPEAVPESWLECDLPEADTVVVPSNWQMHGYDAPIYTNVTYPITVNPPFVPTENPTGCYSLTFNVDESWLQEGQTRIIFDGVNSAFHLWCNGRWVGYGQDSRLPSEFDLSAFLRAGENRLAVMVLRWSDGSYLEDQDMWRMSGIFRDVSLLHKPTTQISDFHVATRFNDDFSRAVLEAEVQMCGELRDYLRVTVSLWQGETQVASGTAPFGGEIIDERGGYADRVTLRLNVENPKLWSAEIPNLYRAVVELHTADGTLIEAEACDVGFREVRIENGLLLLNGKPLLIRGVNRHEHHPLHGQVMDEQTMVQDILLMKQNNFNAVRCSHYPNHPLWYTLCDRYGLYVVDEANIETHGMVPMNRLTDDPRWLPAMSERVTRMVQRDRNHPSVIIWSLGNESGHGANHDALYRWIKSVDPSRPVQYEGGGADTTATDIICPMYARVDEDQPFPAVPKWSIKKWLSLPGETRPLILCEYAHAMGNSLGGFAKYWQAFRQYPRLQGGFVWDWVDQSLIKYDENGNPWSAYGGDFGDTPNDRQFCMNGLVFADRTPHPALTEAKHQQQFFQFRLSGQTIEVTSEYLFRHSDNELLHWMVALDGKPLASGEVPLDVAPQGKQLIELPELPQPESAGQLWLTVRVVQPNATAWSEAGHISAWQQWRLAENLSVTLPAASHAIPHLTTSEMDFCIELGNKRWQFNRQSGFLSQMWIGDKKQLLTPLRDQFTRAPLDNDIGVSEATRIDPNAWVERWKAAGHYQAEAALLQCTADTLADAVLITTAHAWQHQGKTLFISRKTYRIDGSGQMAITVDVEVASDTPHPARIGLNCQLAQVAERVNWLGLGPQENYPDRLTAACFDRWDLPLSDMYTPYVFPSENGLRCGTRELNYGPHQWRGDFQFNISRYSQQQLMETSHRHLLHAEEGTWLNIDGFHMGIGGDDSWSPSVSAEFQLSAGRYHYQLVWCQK

[7] = target: T1, Type-1 angiotensin II receptor (Homo sapiens, UniProt P30556); test: AT1 receptor antagonists, dose response, selectivity assay for APJ receptor antagonist project, cell-based, uHTS hits (AID 463214); type: functional;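 also: antagonist potency against angiotensin II stimulated AT1 response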
T1 sequence (P30556 whole entry): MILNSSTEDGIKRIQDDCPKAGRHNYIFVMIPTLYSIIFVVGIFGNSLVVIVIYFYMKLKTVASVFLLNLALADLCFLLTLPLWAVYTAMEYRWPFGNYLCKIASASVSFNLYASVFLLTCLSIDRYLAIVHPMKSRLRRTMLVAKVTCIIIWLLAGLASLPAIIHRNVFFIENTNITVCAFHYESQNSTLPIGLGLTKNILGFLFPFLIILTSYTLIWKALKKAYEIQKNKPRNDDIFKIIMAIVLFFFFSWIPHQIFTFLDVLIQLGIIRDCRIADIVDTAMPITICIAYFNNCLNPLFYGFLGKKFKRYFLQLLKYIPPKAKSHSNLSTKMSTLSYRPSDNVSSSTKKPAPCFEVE

[8] = inhibitors of intracellular T. cruzi replication, confirmation, NIH3T3 host cells, beta-gal luminescence (AID 2044); type: functional, cell-based;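 also: intracellular parasites grown in NIH/3T3 mouse fibroblasts as host cells; luminescent beta-galactosidase reporter signal from transgenic T. cruzi replicating inside host cells; inhibitors lower the luminescence signal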
[9] = cytotoxicity toward NIH3T3 fibroblasts, dose response, counter-screen, cell-based, ATP luminescence, mouse fibroblasts (AID 2010); type: functional;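 also: cells exposed to compound for about 90 hours before reading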
[10] = target: T2, Heat shock factor protein 1 (Mus musculus, UniProt P38532); test: HSF1 potentiators in luciferase reporter cells, confirmation, cell-based, NIH3T3, luminescence, dose retest (AID 435004); type: functional;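 also: stress induced by proteasome inhibitor MG132 added 30 min after compound; luciferase reporter driven by HSF1 response element in NIH3T3 cells; actives raise luminescence as potentiators of the MG132 stress response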
T2 sequence (P38532 whole entry): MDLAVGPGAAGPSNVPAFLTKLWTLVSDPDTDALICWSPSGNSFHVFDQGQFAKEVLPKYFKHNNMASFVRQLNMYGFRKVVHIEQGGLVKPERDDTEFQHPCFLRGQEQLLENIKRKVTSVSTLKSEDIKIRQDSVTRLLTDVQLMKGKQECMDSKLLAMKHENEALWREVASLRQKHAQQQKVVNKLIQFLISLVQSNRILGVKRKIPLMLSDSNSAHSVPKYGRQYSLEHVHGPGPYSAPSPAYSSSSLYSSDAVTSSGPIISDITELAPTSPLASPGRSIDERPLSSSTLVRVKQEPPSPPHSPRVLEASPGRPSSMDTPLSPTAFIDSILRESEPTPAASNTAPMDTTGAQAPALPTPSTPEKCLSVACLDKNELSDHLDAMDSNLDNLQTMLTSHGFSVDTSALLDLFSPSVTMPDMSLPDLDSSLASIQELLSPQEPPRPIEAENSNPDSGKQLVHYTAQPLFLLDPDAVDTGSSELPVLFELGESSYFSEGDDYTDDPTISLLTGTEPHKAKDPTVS

[11] = Luminescence Cell-Based Dose Retest to Confirm Inhibitors of Cancer Stem Cells. [Related pubchem assays (depositor defined):AID2717, AID2721]; type: functional; conditions: Homo sapiens
[12] = target: Heat shock protein HSP 90-alpha (Homo sapiens, UniProt P07900); type: functional, organism-based
[13] = target: T3, Replicative DNA helicase DnaB (Mycobacterium tuberculosis, UniProt P9WMR3); test: DnaB intein splicing inhibitors, dose response, biochemical, cell-free fluorescence (AID 449749); type: functional
T3 sequence (P9WMR3 whole entry): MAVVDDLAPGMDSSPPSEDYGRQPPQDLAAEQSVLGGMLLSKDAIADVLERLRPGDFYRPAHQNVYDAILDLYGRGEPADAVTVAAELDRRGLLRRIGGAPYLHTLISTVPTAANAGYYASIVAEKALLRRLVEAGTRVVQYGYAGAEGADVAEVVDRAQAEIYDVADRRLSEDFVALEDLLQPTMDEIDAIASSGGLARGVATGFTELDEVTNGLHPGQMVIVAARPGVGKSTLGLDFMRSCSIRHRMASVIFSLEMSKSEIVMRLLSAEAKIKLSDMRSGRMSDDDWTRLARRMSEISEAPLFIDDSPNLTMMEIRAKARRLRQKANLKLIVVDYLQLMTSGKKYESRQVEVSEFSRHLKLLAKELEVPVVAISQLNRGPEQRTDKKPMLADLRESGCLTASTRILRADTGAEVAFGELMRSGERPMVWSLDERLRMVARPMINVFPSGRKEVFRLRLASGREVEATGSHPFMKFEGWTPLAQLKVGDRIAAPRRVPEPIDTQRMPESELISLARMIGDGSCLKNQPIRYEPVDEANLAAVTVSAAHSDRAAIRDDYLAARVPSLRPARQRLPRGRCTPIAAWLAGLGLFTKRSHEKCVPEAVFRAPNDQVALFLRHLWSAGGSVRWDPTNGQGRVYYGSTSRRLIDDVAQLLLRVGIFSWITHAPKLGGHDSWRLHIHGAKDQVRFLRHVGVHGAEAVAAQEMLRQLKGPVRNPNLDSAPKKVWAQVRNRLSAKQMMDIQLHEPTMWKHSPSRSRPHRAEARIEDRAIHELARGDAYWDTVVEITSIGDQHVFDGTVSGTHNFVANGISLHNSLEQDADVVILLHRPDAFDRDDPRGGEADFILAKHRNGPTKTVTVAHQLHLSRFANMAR

Vero [14] = test: Vero cell cytotoxicity, cytotoxicity control for flavivirus capping enzyme inhibitors (AID 588742); type: functional; conditions: Chlorocebus sabaeus
Protein RecA = target: T4, Protein RecA (Mycobacterium tuberculosis, UniProt P9WHJ3); test: Fluorescence Cell-Free Homogeneous Dose Retest to Identify Inhibitors of RecA-Intein Splicing Activity. [Related pubchem assays (depositor defined):AID2097, AID2223, AID489010, AID492950]; type: functional
T4 sequence (P9WHJ3 whole entry): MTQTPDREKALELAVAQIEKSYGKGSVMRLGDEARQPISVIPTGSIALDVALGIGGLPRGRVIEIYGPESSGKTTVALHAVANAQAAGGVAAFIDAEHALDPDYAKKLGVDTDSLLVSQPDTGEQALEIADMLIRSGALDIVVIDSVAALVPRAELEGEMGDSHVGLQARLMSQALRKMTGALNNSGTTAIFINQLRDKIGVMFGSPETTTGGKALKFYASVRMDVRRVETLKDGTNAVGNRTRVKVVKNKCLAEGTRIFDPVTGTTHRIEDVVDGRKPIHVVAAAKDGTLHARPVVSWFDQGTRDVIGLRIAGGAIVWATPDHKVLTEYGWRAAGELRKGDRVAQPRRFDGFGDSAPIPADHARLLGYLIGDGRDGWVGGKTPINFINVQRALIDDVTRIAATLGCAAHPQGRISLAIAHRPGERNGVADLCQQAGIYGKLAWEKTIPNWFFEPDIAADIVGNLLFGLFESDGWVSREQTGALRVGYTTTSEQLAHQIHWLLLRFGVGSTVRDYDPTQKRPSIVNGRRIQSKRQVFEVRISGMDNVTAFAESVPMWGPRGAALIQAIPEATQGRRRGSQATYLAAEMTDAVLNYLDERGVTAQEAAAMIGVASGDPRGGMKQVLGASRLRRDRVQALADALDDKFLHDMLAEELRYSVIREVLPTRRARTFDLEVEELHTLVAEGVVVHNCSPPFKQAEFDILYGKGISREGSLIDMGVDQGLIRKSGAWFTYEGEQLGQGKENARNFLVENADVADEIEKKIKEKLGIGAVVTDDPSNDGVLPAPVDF

Genome polyprotein = Genome polyprotein (dengue virus type 2, UniProt P29990); test: Dengue-2 NS5 methyltransferase inhibitors, primary screen, biochemical, confirmation dose response (AID 588689); type: functional
Cytochrome P450 2C9 = Cytochrome P450 2C9 (Homo sapiens, UniProt P11712)
BJ [15] = test: cytotoxicity toward BJ-TERT fibroblasts, dose response, cell-based, RAS-independent, luminescence (AID 1933); type: functional; conditions: Homo sapiens
BJ [16] = test: cells; type: functional, cell-based; conditions: Homo sapiens
[17] = target: Luciferin 4-monooxygenase (Photinus pyralis, UniProt P08659); test: firefly luciferase enzyme inhibitors, dose response, biochemical, luminescence (AID 1891)
[18] = Luminescence Cell-Based Dose Confirmation HTS to Identify Inhibitors of Platelet Dense Granule Release. [Related pubchem assays: 1663 (Primary HTS), 1678 (Summary of Project)]; type: functional
BJ [19] = test: cytotoxicity toward BJ-TERT-LT-ST fibroblasts, dose response, cell-based, RAS-independent, luminescence (AID 1935); type: functional; conditions: Homo sapiens;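 also: BJ fibroblasts immortalized with TERT plus LT and ST oncogenes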
[20] = cytotoxicity toward DRD oncogenic fibroblasts, dose response, cell-based, non-viral oncogenic, luminescence (AID 1934); type: functional; conditions: Homo sapiens
[21] = miR-122 activators in hepatoma reporter cells, dose response, cell-based, Huh7 psiCHECK-miR122, Renilla luciferase, cherry-picked (AID 651956); type: functional;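 also: huh7 hepatoma cells stably carrying a psiCHECK-2 miR-122 sensor plasmid; renilla luciferase signal reporting endogenous miR-122 activity after 48 h compound exposure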

O=C(Nc1nc(-c2ccc(S(=O)(=O)N3CCCCCC3)cc2)cs1)c1ccccc1
EC50 [1]: 13.3 µM (inactive)
EC50 [2]: 40.9 µM (not active)
EC50 [3]: 15.8 µM (not active)

CC(=O)c1c(C)[nH]c(C(=O)Nc2ccc(C)cn2)c1C
AC50 (HEK293): 1.7 µM (active)

O[C@@H]1[C@@H](O)C=C2CCN3Cc4cc5c(cc4[C@H]1C23)OCO5 (stereo not given in full)
IC50 [4]: > 80 µM (inactive)
IC50 (Vero [5]): > 25 µM (active)
CC50 (Vero [6]): 5.86 µM (active)
AC50 (Paired box protein Pax-8): 1.88 µM (active)

CCCCOC(=O)C(C)Nc1n[nH]c(=S)[nH]c1=O (stereo not given)
EC50 [1]: 17.3 µM (inactive)
EC50 [2]: > 79.4 µM (not active)
EC50 [3]: 16.3 µM (not active)

O=C(CN1C(=O)c2ccccc2C1=O)NCC(=O)OCC(=O)c1cccc([N+](=O)[O-])c1
EC50 (Beta-galactosidase): > 40 µM (inactive)
IC50 [7]: 17.4 µM (active)

CN(C)CCCNC(=O)/C=C/c1ccc(OCc2c(F)cccc2Cl)cc1
EC50 [8]: 327 nM (active)
EC50 [9]: 8.47 µM (active)
IC50 (Vero [5]): 23.5 µM (active)
CC50 (Vero [6]): > 25 µM (active)

COc1ccc2nc(SC)c(C#N)cc2c1
EC50 [1]: 14.1 µM (inactive)
EC50 [2]: 41.8 µM (not active)
EC50 [3]: 12.3 µM (not active)
EC50 [10]: > 260 µM (inactive)

COc1cc(/C=C/c2ccc3cccc(OC)c3n2)c(OC(C)=O)c([N+](=O)[O-])c1
EC50 (Beta-galactosidase): 26.9 µM (active)
IC50 [7]: 10.2 µM (active)
AC50 [11]: 7.38 µM (active)

Cc1ccc(CSc2nc3ccsc3c(=O)n2Cc2ccccn2)cc1
AC50 [12]: 5 µM (active)

Cn1nc([N+](=O)[O-])c(C(C#N)c2ccccn2)c(Cl)c1=O (stereo not given)
EC50 [8]: 4820 nM (active)
EC50 [9]: > 30 µM (not active)
AC50 [11]: 5.48 µM (active)
AC50 [13]: 25.8 µM (active)
CC50 (Vero [14]): 12 µM (active)
EC50 (Protein RecA): 9.8 µM (active)
IC50 (Genome polyprotein): 26.5 µM (active)

CN(C)/C=C/C(=O)c1ccc(Oc2ccccc2)cc1
AC50 [12]: 4.26 µM (active)

CCC(C)(C)n1nnnc1C(C(C)C)N(Cc1ccco1)Cc1cc2cc3c(cc2nc1O)OCO3 (stereo not given)
CC50 (Vero [14]): > 40 µM (active)
AC50 (Cytochrome P450 2C9): inconclusive

Cc1onc(-c2ccccc2Cl)c1C(=O)Nc1nnc(-c2ccc(Br)cc2)s1
EC50 [1]: > 79.4 µM (inactive)
EC50 [2]: > 79.4 µM (not active)
EC50 [3]: 45 µM (not active)

COc1cccc(/C=N/Nc2ncccc2[N+](=O)[O-])c1OC
EC50 (BJ [15]): 17.6 µM (active)
EC50 (BJ [16]): 15.6 µM (inconclusive)
EC50 [17]: 5.27 µM (active)
EC50 [18]: 3.32 µM (active)
EC50 (BJ [19]): > 150 µM (not active)
EC50 [20]: 13.5 µM (active)
AC50 (HEK293): 1.8 µM (active)

CCCC#Cc1ccc2c(c1)O[C@H](CN(C)C(=O)COC)[C@H](C)CN([C@@H](C)CO)S2(=O)=O
AC50 [21]: 1.19 µM (active)

C[C@@H]1CN([C@H](C)CO)S(=O)(=O)c2ccc(-c3ccccc3)cc2O[C@@H]1CN(C)C(=O)c1ccc2c(c1)OCO2
AC50 [21]: 27.2 µM (active)

CC(=O)/N=c1\sc2nc3ccccc3nc2n1N(C(C)=O)C(C)=O
EC50 [1]: 25.2 µM (inactive)
EC50 [2]: > 79.4 µM (not active)
EC50 [3]: 22.9 µM (not active)
